Measured values published in patent publication US20040260318A1, “Anastomotic connector devices” (Angiotech International AG, priority 2003, published 2004).

How the values were obtained:
collagenase expression = experiment: Effect of other anti-microtubule agents on IL-1-induced collagenase expression in primary chondrocytes; format: cell-based, calf; details: pre-incubation of chondrocytes 6 hours, then IL-1 20 ng/ml 18 hours; FIGS. 7A-H
Method: Primary chondrocyte cultures were freshly isolated from calf cartilage. The cells were plated at 2.5×10^6 per ml in 100×20 mm culture dishes and incubated in Ham's F12 medium containing 5% FBS overnight at 37° C. The cells were starved in serum-free medium overnight and then treated with anti-microtubule agents at various concentrations for 6 hours. IL-1 (20 ng/ml) was then added to each plate and the plates incubated for an additional 18 hours. Total RNA was isolated by the acidified guanidine isothiocyanate method and subjected to electrophoresis on a denatured gel. Denatured RNA samples (15 μg) were analyzed by gel electrophoresis in a 1 % denatured gel, transferred to a nylon membrane and hydridized with the ^32P-labeled collagenase cDNA probe. ^32P-labeled glyceraldehyde phosphate […] (GAPDH) cDNA as an internal standard to ensure roughly equal loading. The exposed films were scanned and quantitatively analyzed with ImageQuant.

human fibroblasts = experiment: Screening assay for effect on cell proliferation (CYQUANT fluorescence); format: cell-based; details: Fibroblast, 72 hours incubation, FIG. 2
Method: Fibroblasts at 70-90% confluency are trypsinized, replated at 600 cells/well in media in 96-well plates and allowed to attachment overnight. Mitoxantrone is prepared in DMSO at a concentration of 10^−2 M and diluted 10-fold to give a range of stock concentrations (10^−8 M to 10^−2 M). Drug dilutions are diluted 1/1000 in media and added to cells to give a total volume of 200 μL/well. Each drug concentration is tested in triplicate wells. Plates containing fibroblasts and mitoxantrone are incubated at 37° C. for 72 hours (In vitro toxicol. (1990) 3:219; Biotech. Histochem. (1993) 68: 29; Anal. Biochem. (1993) 213:426).
To terminate the assay, the media is removed by gentle aspiration. A 1/400 dilution of CYQUANT 400× GR dye indicator (Molecular Probes; Eugene, Ore.) is added to […] Cell Lysis buffer, and 200 μL of the mixture is added to the wells of the plate. Plates are incubated at room temperature, protected from light for 3-5 minutes. Fluorescence is read in a fluorescence microplate reader at ˜480 nm excitation wavelength and ˜520 nm emission maxima. […] An average of n=4 replicate experiments is used to determine IC50 values.

[1] = system: MCP-1 production by THP-1 cells; experiment: MCP-1 production by macrophages (opsonized zymosan stimulated, ELISA); format: cell-based; details: Homo sapiens, 24 hours, 1 mg/mL opsonized zymosan, FIG. 11
Method: (§1) The human macrophage cell line, THP-1 is plated in a 12 well plate such that each well contains 1×10^6 cells in 2 mL of media containing 10% FCS. Opsonized zymosan is prepared by resuspending 20 mg of zymosan A in 2 mL of ddH2O and homogenizing until a uniform suspension is obtained. Homogenized zymosan is pelleted at 250 g and resuspended in 4 mL of human serum for a final concentration of 5 mg/mL. and incubated in a 37° C. water bath for 20 minutes to enable opsonization. Geldanamycin is prepared in DMSO at a concentration of 10^−2 M and serially diluted 10-fold to give a range of stock concentrations (10^−8 M to 10^−2 M).
THP-1 cells are stimulated to produce MCP-1 by the addition of 1 mg/mL opsonized zymosan. Geldanamycin is added to THP-1 cells by directly adding DMSO stock solutions, prepared earlier, at a 1/1000 dilution, to each well. […]
(§2) After a 24 hour stimulation, supernatants are collected to quantify MCP-1 production. MCP-1 concentrations in the supernatants are determined by ELISA using recombinant human MCP-1 to obtain a standard curve. […] The dilution of Capture Antibody used is lot-specific and is determined empirically. […] Stop Solution (2 N H2SO4) is then added to the wells and a yellow colour reaction is read at 450 nm with λ correction at 570 nm. Mean absorbance is determined from triplicate data readings and the mean background is subtracted. […]

[2] = system: IL-8 production by THP-1 cells; experiment: IL-8 production by macrophages (opsonized zymosan stimulated, ELISA); format: cell-based; details: Homo sapiens, 24 hours, 1 mg/mL opsonized zymosan, FIG. 10
Method: as §1
THP-1 cells are stimulated to produce IL-8 by the addition of 1 mg/mL opsonized zymosan. Geldanamycin is added to THP-1 cells by directly adding DMSO stock solutions, prepared earlier, at a 1/1000 dilution, to each well. […]
as §2, with “IL-8” for “MCP-1”

[3] = system: IL-1β production by THP-1 cells; experiment: IL-1β production by macrophages (opsonized zymosan stimulated, ELISA); format: cell-based; details: Homo sapiens, 24 hours, 1 mg/mL opsonized zymosan, FIG. 9
Method: as §1
THP-1 cells are stimulated to produce IL-1β by the addition of 1 mg/mL opsonized zymosan. Geldanamycin is added to THP-1 cells by directly adding DMSO stock solutions, prepared earlier, at a 1/1000 dilution, to each well. […]
as §2, with “IL-1β” for “MCP-1”

Row | Compound | concentration (as low as) preventing IL-1-induced collagenase expression (collagenase expression) | also measured
1 | [F][Al]([F])[F] [AIF3] | 100 nM | –
2 | N#CC1=C(N)Oc2c(ccc3ccccc23)C1c1cccc([N+](=O)[O-])c1 (stereo not shown) [LY290181] | 100 nM | –
3 | O=C1c2c(O)ccc(O)c2C(=O)c2c(NCCNCCO)ccc(NCCNCCO)c21 [Mitoxantrone, 9,10-Anthracenedione, 1,4-dihydroxy-5,8-bis[[2-[(2-hydroxyethyl)amino]ethyl]amino]-] | – | IC50 (human fibroblasts): 20 nM
4 | [2H]O[2H] [deuterium oxide] | 100 nM | –
5 | COC1=C2C[C@@H](C)C[C@H](OC)[C@H](O)[C@@H](C)/C=C(\C)[C@H](OC(N)=O)[C@@H](OC)/C=C\C=C(/C)C(=O)NC(=CC1=O)C2=O [geldanamycin] | – | IC50 [1]: 7 nM; IC50 [2]: 27 nM; IC50 [3]: 20 nM
6 | CCOC(=O)CN [glycine ethyl ester] | 100 nM | –
7 | ethylene glycol bis-(succinimidylsuccinate) | 100 nM | –
8 | hexylene glycol | 100 nM | –
